Read-outs that look alike come from different tables or passages of the source.
What was measured:
[1] = target: PRMT5/MEP50 (Homo sapiens, UniProt O14744); assay: PRMT5/MEP50 radioactive assay (3H transfer from SAM to H4 peptide / protein substrate); type: biochemical; details: close analogs of Compound C
[2] = system: 19 enzymes: Type I and Type II PRMTs and lysine methyltransferases (KMTs); assay: methyltransferase selectivity panel; type: biochemical; details: for selectivity over other methyltransferases: PRMT5 tool compounds
Source text: FIG. 31: Phylogenetic tree highlighting the methyltransferases tested in the selectivity panel. […] PRMT9 is shown for relationship purposes only within the family tree and was not evaluated in the panel. Figure adapted from Richon V M. et al.
PRMT9/FBXO11, which is the other Type II PRMT and the only PRMT to lack the THW loop, was not included due to the lack of a functional enzyme assay.

[3] = system: 240 cancer cell lines; assay: 10-day 2D growth assay, 240 cell lines; type: cell-based
Description: FIG. 34: Compound B gIC50 values in cancer cell lines (n=240) from 10 day 2D growth assay. ALL-acute lymphoblastic leukemia, AML-acute myeloid leukemia, CML-chronic myeloid leukemia, DLBCL-diffuse large B-cell lymphoma, HL-Hodgkin lymphoma, HN-head and neck cancer, MM-multiple myeloma, NHL-non-Hodgkin lymphoma, NSCLC-non-small cell lung cancer, PEL-primary effusion lymphoma, SCLC-small cell lung cancer, TCL-T-cell lymphoma.
The tumor types with median gIC50<100 nM were acute myeloid leukemia (AML), chronic myelogenous leukemia (CML), Hodgkin's Lymphoma (HL), multiple myeloma (MM), breast, glioma, kidney, melanoma, and ovarian cancer.

[4] = system: breast cancer cell lines (SKBR3, MDA-MB-468, MCF-7, ZR-75-1); assay: longer-term (10-12 day) growth/death assay; type: cell-based; details: SKBR3, MDA-MB-468 and MCF-7 cells, prolonged exposure (7-10 days)
[5] = system: panel of cancer cell lines; assay: cells; type: cell-based
Source text: DLBCL-diffuse large B-cell lymphoma, GBM-glioblastoma, MCL-mantle cell lymphoma, MM-multiple myeloma
The cell lines were selected to represent tumor types where PRMT5 activity has been reported to regulate key pathways and/or cell growth and survival (such as lymphoma and MCL, glioma, breast and lung cancer lines).

[6] = system: Z138 MCL cells; assay: 6-day growth/death assay; type: cell-based; details: Z138, 6-day
[7] = system: SDMA in Z138 cells; assay: SDMA ELISA; type: cell-based; details: Homo sapiens
[8] = system: gene expression in Z138 cells; assay: qPCR gene expression (11 genes); type: cell-based; details: Homo sapiens, Z-138, 96 h, day 4
[9] = system: MDM4 splicing, SDMA, p53 and p21 in MCL lines; assay: MDM4 splicing (RT-PCR) and SDMA/p53/p21 western; type: cell-based
Description: To understand whether p53 activation is associated with MDM4 isoform switching, MDM4 alternative splicing was analyzed. […] The role of the p53 pathway in the biology of the response of p53 wild-type MCL cells to PRMT5 inhibition is being evaluated.

[10] = system: MCL cell lines; assay: 6-day growth/death CTG assay in MCL cell lines; type: cell-based; details: for IC50: read-out: gIC50
[11] = system: Z-138 MCL xenograft model; assay: Z138 xenograft 21-day efficacy and PD; type: in vivo; details: for TGI: 21-day
Description: (§1) B. Quantified SDMA western data from tumors harvested at the end of the efficacy study (3 hours post last dose).

[12] = system: Maver-1 MCL xenograft model; assay: Maver-1 xenograft efficacy and PD; type: in vivo; details: for TGI: day 18
Description: as §1

[13] = system: 4 breast cancer lines; assay: propidium iodide FACS cell cycle analysis; type: cell-based; details: after 7-10 days of treatment
[14] = system: MDA-MB-468 triple negative breast cancer xenograft model; assay: MDA-MB-468 xenograft efficacy and PK/PD; type: in vivo
Description: Next, the efficacy of PRMT5 inhibition was evaluated in in vivo models of breast cancer.

[15] = system: GBM cell lines; assay: 2D 6-day growth/death CTG assay; type: cell-based
[16] = system: SDMA in a panel of 5 MCL lines; assay: SDMA inhibition in MCL panel; details: read-out: SDMA IC50
Source text: (B) SDMA IC50 values in a panel of MCL lines (EPIZYME data, day 4).

[17] = system: patient-derived tumor models and cell lines (n=73); assay: soft agar 3D colony formation assay; type: cell-based; details: n=73 models
Source text: FIG. 35: Compound E relative IC50 values from 8-13 day colony formation assay performed in patient-derived and cell line tumor models.
Tumor types with the lowest median IC50 values were large cell lung cancer, breast, kidney and glioma.

PRMT5/MEP50, sequence (O14744 whole entry): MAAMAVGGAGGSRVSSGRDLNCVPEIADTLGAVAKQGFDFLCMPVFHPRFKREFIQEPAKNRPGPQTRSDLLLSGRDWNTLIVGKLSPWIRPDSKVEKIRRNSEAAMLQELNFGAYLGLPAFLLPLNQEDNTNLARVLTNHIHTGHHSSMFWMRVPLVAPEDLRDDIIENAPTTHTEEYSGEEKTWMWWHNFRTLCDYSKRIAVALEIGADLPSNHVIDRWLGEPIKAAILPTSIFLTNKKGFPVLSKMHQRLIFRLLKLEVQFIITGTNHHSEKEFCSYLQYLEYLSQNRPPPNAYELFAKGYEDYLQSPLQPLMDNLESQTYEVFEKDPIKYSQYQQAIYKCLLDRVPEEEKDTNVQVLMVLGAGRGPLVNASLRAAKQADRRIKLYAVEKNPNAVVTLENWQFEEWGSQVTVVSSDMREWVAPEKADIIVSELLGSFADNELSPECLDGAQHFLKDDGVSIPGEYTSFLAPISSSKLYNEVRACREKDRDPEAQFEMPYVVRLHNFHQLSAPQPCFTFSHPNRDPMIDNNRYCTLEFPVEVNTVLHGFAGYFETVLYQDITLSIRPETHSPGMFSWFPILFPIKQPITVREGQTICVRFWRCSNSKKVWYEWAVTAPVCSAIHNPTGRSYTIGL
PRMT5/MEP50, sequence (Q9BQA1 whole entry partner): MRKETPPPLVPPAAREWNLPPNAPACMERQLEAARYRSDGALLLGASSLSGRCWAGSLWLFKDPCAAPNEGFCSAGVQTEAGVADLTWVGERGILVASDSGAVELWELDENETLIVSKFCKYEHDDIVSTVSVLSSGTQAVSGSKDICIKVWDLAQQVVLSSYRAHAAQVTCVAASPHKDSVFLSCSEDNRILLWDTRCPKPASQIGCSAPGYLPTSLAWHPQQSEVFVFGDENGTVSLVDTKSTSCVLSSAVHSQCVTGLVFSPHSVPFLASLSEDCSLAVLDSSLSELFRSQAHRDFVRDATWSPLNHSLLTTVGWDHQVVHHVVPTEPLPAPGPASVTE

O=C(NC[C@H](O)CN1CCc2ccccc2C1)c1ccnc(NC2CCC2)c1 [Compound B]
inhibitory potency compared with Compound C [1]: similar | selectivity over other methyltransferases [2]: Selectivity for PRMT5/MEP50 over the other methyltransferases | IC50 ([3]; AML, CML, HL, MM, breast, glioma, kidney, melanoma, ovarian cancer, read-out: median gIC50): < 100 nM | IC50 ([3]; majority of cell lines, read-out: gIC50): < 1000 nM | nature of response [4]: cytotoxic response

CC(=O)N1CCC(Nc2cc(C(=O)NC[C@H](O)CN3CCc4ccccc4C3)ncn2)CC1 [Compound C]
IC50 ([2]; any of the 19 enzymes): > 40000 nM | potency for any other tested enzyme (FIG. 31) ([2]; phylogenetic tree symbol class): > 10^−5 M | IC50 ([5]; majority of cell lines tested, read-out: gIC50): < 1000 nM | gIC50 ([5]; most sensitive lymphoma lines (MCL and DLBCL)): single digit nM range | IC50 ([6]; Homo sapiens, Z-138, 144 h, read-out: gIC50): 2.7 nM | gIC95 [6]: 82 nM | gIC100 [6]: 880 nM | EC50 ([7]; Z-138, 24 h, day 1): 7.3 nM | EC50 ([7]; Z-138, 72 h, day 3): 2.35 nM | IC50 ([7]; Z-138, 72 h, day 3): 4.79 nM | EC90 ([7]; Z-138, 72 h, day 3, read-out: SDMA EC90 (complete inhibition above)): 19 nM | EC50 [8]: 22 to 332 nM | MDM4 isoform switching ([9]; Z138 and JVM-2 cells (both p53 wild-type)): induced MDM4 isoform switching | concentrations at which SDMA levels were undetectable by Western blot ([9]; Z138 cells): above 8 nM | concentrations at which changes in MDM4 splicing and p53/p21 protein expression were apparent ([9]; Z138 cells): above 8 nM | p53 and p21 expression ([9]; Z138 cells, 200 nM Compound C): increased p53 and p21 expression to similar levels | IC50 ([10]; 1 cell line of the MCL panel): > 1000 nM | IC50 ([10]; 2 lines of the MCL panel): ≤ 100 nM | IC50 ([10]; 3 cell lines of the MCL panel): < 10 nM | sensitivity ([10]; Mino, Jeko-1 (ibrutinib sensitive lines)): only moderately sensitive | gIC50 ([10]; Z-138, Maver-1 and JVM-2): low | reduction of the methyl mark (SDMA western, tumors) ([11]; all dose groups): greater than 70% | body weight loss ([11]; all groups in all efficacy studies presented): no body weight loss | TGI ([11]; lowest dose group, 25 mg/kg BID): 40% | TGI ([11]; top 100 mg/kg BID dose group): > 90% | reduction of the methyl mark (SDMA western, tumors) ([11]; top dose groups): > 98% | reduction of the methyl mark (SDMA, tumors) ([12]; all dose groups): 80-95% | TGI ([12]; lowest dose group): 50% | TGI ([12]; top dose groups): > 90% | nature of response [4]: cytotoxic response | breast cancer lines with induction of cell death (increase in <2N) [13]: 3 out of 4 | SDMA inhibition ([14]; 100 mg/kg BID): greater than 90% | TGI ([14]; 100 mg/kg BID): 83% | SDMA inhibition ([14]; 100 mg/kg QD): less than 80% | efficacy ([14]; 100 mg/kg QD): not efficacious | IC50 ([15]; 144 h, GBM cell lines, 6-day, read-out: gIC50): 40 to 22000 nM | nature of response ([15]; with the exception of the SF539 cell line): largely cytostatic | IC50 [16]: 0.3 to 14 nM

O=C(NC[C@H](O)CN1CCc2ccccc2C1)c1cc(NC2COC2)ncn1 [Compound E]
inhibitory potency compared with Compound C [1]: similar | selectivity over other methyltransferases [2]: Selectivity for PRMT5/MEP50 over the other methyltransferases | share of models with relative growth IC50 values below 1 μM [17]: 37%

CC(=O)N1CCC(Nc2cc(C(=O)NC[C@H](O)CN3CCc4ccccc4C3)ccn2)CC1 [Compound F]
inhibitory potency compared with Compound C [1]: similar | selectivity over other methyltransferases [2]: Selectivity for PRMT5/MEP50 over the other methyltransferases

COc1ccc(C2=N[C@@H](c3ccc(Cl)cc3)[C@@H](c3ccc(Cl)cc3)N2C(=O)N2CCNC(=O)C2)c(OC(C)C)c1 [Nutlin-3, reference compound]
p53 and p21 expression ([9]; Z138 cells, 5 μM MDM2 inhibitor (Nutlin-3)): increased p53 and p21 expression to similar levels

— US11197857B2, “Combination therapy” (GlaxoSmithKline Intellectual Property Development Limited, priority 2016, dated 2021)
